Measured values from PMC8815074, “Development of ^11C-Labeled ASEM Analogues for the Detection of Neuronal Nicotinic Acetylcholine Receptors (α7-nAChR)” (ACS Chemical Neuroscience, 2022).

Target: T1, α7-nAChR (Rattus norvegicus, UniProt Q05941)
T1 construct: gene Chrna7; native receptor in rat brain sections
Experiment: radioligand autoradiography ([…] and 3H, […]) with blocking by ASEM and unlabeled KIn-83
Conditions: read-out: % of total binding displaced at 10 uM

T1 sequence (Q05941 23-502): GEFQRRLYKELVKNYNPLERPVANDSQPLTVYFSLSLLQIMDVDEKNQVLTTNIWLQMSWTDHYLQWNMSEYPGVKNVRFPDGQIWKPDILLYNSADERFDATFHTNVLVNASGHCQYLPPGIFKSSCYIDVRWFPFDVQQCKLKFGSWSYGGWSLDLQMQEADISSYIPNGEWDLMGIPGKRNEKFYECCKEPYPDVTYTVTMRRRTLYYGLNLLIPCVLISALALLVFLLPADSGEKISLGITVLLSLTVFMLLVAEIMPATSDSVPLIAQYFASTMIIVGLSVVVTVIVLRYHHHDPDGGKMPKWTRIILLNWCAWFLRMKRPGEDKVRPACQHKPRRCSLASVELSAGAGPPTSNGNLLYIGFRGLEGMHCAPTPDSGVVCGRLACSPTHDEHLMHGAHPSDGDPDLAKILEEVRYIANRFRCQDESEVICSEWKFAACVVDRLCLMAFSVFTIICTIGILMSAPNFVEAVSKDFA

## COc1cccc2c1S(=O)(=O)c1cc(N3CCN4CCC3CC4)ccc1-2 [KIn-83]
  inhibition at 10 µM: 80%
